Measurements taken from ChEMBL document CHEMBL1921754, “Sodium dl-α-tocopheryl-6-O-phosphate inhibits PGE₂ production in keratinocytes induced by UVB, IL-1β and peroxidants” (Bioorg Med Chem, 2011).
Blank lines part the entries; values can stand above or below the molecule they belong to. Activity calls are given as the source filed them. No cut-off for these calls is given here.

Key:
[1] = Protection against UVB irradiation-induced cell damage in NHEK assessed as inhibition of PGE2 production at 2 uM pretreated for 24 hrs before UVB irradiation measured after 24 hrs by enzymatic immunoassay; assay type: functional; settings: Homo sapiens, light or radiation study
Keratinocyte = assay: Protection against UVB irradiation-induced SV40-transformed human keratinocytes damage assessed as inhibition of PGE2 production at 30 uM pretreated for 24 hrs before UVB irradiation measured after 24 hrs by ELISA; assay type: functional, cell-based
Homo sapiens [2] = species on record: Homo sapiens; assay: Protection against H2O2-induced cell damage in NHEK assessed as inhibition of PGE2 production at 0.5 to 2 uM after 24 hrs by enzymatic immunoassay; assay type: functional
[3] = (§1) Protection against t-BHP-induced cell damage in NHEK assessed as inhibition of PGE2 production at 2 uM pretreated for 24 hrs before t-BHP challenge measured after 24 hrs by enzymatic immunoassay; assay type: functional; settings: Homo sapiens
[4] = Protection against IL1-beta-induced cell damage in NHEK assessed as inhibition of PGE2 production at 0.5 uM pretreated for 24 hrs before IL1-beta challenge measured after 24 hrs by enzymatic immunoassay; assay type: functional; settings: Homo sapiens
[5] = Protection against H2O2-induced cell damage in NHEK assessed as inhibition of PGE2 production at 2 uM pretreated for 24 hrs before H2O2 challenge measured after 24 hrs by enzymatic immunoassay; assay type: functional; settings: Homo sapiens
[6] = Protection against IL1-beta-induced cell damage in NHEK assessed as inhibition of PGE2 production at 2 uM pretreated for 24 hrs before IL1-beta challenge measured after 24 hrs by enzymatic immunoassay; assay type: functional; settings: Homo sapiens
[7] = Protection against IL1-beta-induced cell damage in NHEK assessed as inhibition of PGE2 production at 0.1 uM pretreated for 24 hrs before IL1-beta challenge measured after 24 hrs by enzymatic immunoassay; assay type: functional; settings: Homo sapiens
Zone of skin = assay: Prodrug conversion in 3D restructured human skin model assessed as conversion of compound to dl-alpha-tocopherol at 2% after 4 hrs by HPLC analysis; assay type: ADME, tissue-based
Homo sapiens [8] = species on record: Homo sapiens; assay: as §1; assay type: functional
[9] = Protection against H2O2-induced cell damage in NHEK assessed as inhibition of PGE2 production at 0.5 to 2 uM pretreated for 24 hrs before H2O2 challenge measured after 24 hrs by enzymatic immunoassay; assay type: functional, Homo sapiens

Compound: Cc1ccc(S(=O)(=O)/C=C/C#N)cc1
inhibition at 2 µM [1]: 9%

Compound: O=C1O[C@H]([C@@H](O)CO)C(O)=C1OP(=O)(O)O
inhibition (Keratinocyte): inactive

Drug metabolism (Zone of skin): Active
Compound: CC(=O)Oc1c(C)c(C)c2c(c1C)CC[C@@](C)(CCC[C@H](C)CCC[C@H](C)CCCC(C)C)O2 (racemic)
inhibition (Homo sapiens [2]): inactive
inhibition at 2 µM [3]: 77.4%
inhibition at 0.5 µM [4]: 40%
inhibition at 2 µM [5]: 25%
inhibition at 2 µM [6]: 67%
inhibition at 0.1 µM [7]: 38%

Compound: CC1(C)[C@@H](O[C@H]2O[C@H](C(=O)[O-])[C@@H](O)[C@H](O)[C@H]2O[C@@H]2O[C@H](C(=O)[O-])[C@@H](O)[C@H](O)[C@H]2O)CC[C@]2(C)[C@H]3C(=O)C=C4[C@@H]5C[C@@](C)(C(=O)O)CC[C@]5(C)CC[C@@]4(C)[C@]3(C)CC[C@@H]12.[K+].[K+] [GLYCYRRHIZINATE DIPOTASSIUM]
inhibition (Homo sapiens [2]): inactive
inhibition (Homo sapiens [8]): inactive
inhibition (INH) [9]: 40%
inhibition at 0.5 µM [4]: 14%
inhibition at 2 µM [6]: 24%

Compound: C[S+]([O-])c1ccc(-c2nc(-c3ccc(F)cc3)c(-c3ccncc3)[nH]2)cc1 (stereo unspecified) [SB-203580]
inhibition at 2 µM [1]: 73%

Compound: Oc1c2ccccc2c2c3c(cccc13)N=N2 [SP-600125]
inhibition at 2 µM [1]: 33%
